Where two headings read alike, the source gives them in different places.
Experiments:
[1] = tested on: MG-63 osteosarcoma cell line; assay: Cell proliferation assay (ATPlite), MG-63; type: cell-based, human; conditions: 5 day proliferation assay
Experimental: (§1) Cell proliferation assays were carried out as described using ATPlite 1step™ (Perkin Elmer, Groningen, The Netherlands). Exposure time was 72 or 120 hours as indicated in the Legends to the Figures. Percentage growth was calculated, relative to the growth of unexposed cells, and relative IC50s were fitted using a four-parameter logistics curve (XLfit 5.3, IDBS). For Figure 4A and 7 dose response curves were redrawn in Prism. To compare the inhibitory potency of compounds in proliferation assays with HCT 116 parental and tetraploid clones, pIC50 (−^10logIC50) values were compared in three independent experiments. A two-tailed Student's t-test was performed to determine whether differences in sensitivity (ΔpIC50) were statistically significant. Caspase 3/7 activity of cancer cells was measured using Caspase-Glo 3/7 Assay kit (cat no. G8093, Promega, Madison USA). Viability of T-ALL cell samples was determined using ATPlite and exposure of 72 hours as described previously.

[2] = tested on: A-172 glioblastoma cell line; conditions: three day cell proliferation assay; cited from earlier work
[3] = tested on: pediatric T-ALL patient cell samples; assay: Viability assays with T-ALL patient samples; type: cell-based, human; conditions: read-out: IC50
Experimental: Written informed consent was obtained from the parents or legal guardians of each T-ALL patient to use excess diagnostic material for research purposes. The study was performed in accordance with the Institutional Review Board of the Erasmus Medical Center Rotterdam (The Netherlands) and in accordance with the Declaration of Helsinki. Leukemic cells were harvested from blood or bone marrow samples and were enriched to ≥ 90% purity.
as §1

SMILES: CCc1cccc(CC)c1NC(=O)c1ccn2c1CCc1cnc(Nc3ccc(N4CCN(C)CC4)cc3OC)nc1-2 [NTRC 0066-0]
- IC50 [1]: 0.26 µM
- IC50 [2]: 0.051 µM
- IC50 ([3]; all ten T-ALL patient samples, three days): ≥ 5 µM
- IC50 ([3]; patient sample 491, three-day assay): 5 µM
- IC50 ([3]; patient sample 1033, three-day assay): 5.1 µM
- IC50 ([3]; patient sample 1816, three-day assay): 8.1 µM
- IC50 ([3]; patient sample 2323, three-day assay): 7.1 µM
- IC50 ([3]; patient sample 3594, three-day assay): 4.8 µM
- IC50 ([3]; patient sample 3852, three-day assay): 4.9 µM
- IC50 ([3]; patient sample 4023, three-day assay): 5.4 µM
- IC50 ([3]; patient sample 4126, three-day assay): 9.2 µM
- IC50 ([3]; patient sample 4992, three-day assay): 4.9 µM
- IC50 ([3]; patient sample 10110, three-day assay): 4.5 µM

Source: paper PMC5503534, “Stable aneuploid tumors cells are more sensitive to TTK inhibition than chromosomally unstable cell lines” (Oncotarget, 2017)
